Source: article PMC12935919 (Frontiers in Pharmacology, 2026)
No end group written: not given here.

Key:
C2C12 myotubes = assay: DEX-induced muscle atrophy model, Western blot; assay type: cell-based; details: 10 μM DEX 24 h, alone or with 10 or 100 μM Myoki
Method: To induce C2C12 myotube differentiation, myoblasts were seeded in 6-well plates at 5 × 10^5 cells per well. Once reaching 90% confluency, they were cultured in DMEM supplemented with 2% horse serum (Thermo Fisher Scientific) and 1% penicillin-streptomycin. […] Differentiation was observed using an optical microscope (LEICA, 100×). Myotube morphology (length and diameter) was quantified in ImageJ (NIH) using the same images: myotube length was measured by tracing the long axis of each myotube (end-to-end), and myotube diameter was measured as the short-axis width at three positions along each myotube; the mean of the three width values was recorded as the diameter. For each experimental group, three randomly captured images (fields) were analyzed, and at least 15–20 myotubes per image were quantified under identical imaging settings.
Treated C2C12 cells (5 × 10^5 cells/well) were harvested in lysis buffer (Sigma-Aldrich, 2910) and centrifuged at 12,000 g for 10 min; proteins in the supernatant were collected. Protein concentrations were measured using the BCA Protein Assay Kit (Thermo Fisher Scientific). Each 20 μg sample was separated using 10% SDS–PAGE and transferred onto a polyvinylidene fluoride membrane (Millipore, Burlington, MA, USA). Non-specific binding was blocked with 5% non-fat dry milk for 1 h. The membranes were incubated overnight with primary antibodies: Anti-Myf5 (Abcam, ab125078), Anti-Myf6 (Abcam, ab182842), Anti-MyoD (Santa Cruz, sc-377460), Anti-MyoG (Santa Cruz, sc-52903), Anti-α-actinin (Santa Cruz, sc-17829), Anti-MYH3 (Santa Cruz, sc-53091), Anti-p-mTOR (Ser2448) (CST, #5536), Anti-p-Akt (Ser473) (CST, #9271), Anti-p-p70 S6 Kinase (Thr389) (CST, #9205), Anti-myostatin (Abcam, ab124721), Anti-atrogin-1/MAFbx (Santa Cruz, sc-166806), and Anti-MuRF1 (Santa Cruz, sc-398608). Membranes were then incubated for 1 h with HRP-conjugated secondary antibodies. Blot images were captured with the ECL system (Amersham, UK) and quantified using ImageJ.

[1] = molecular target: T1, human recombinant Myostatin-Fc protein (Mus musculus, UniProt O08689); assay: Surface plasmon resonance (SPR) analysis, Biacore T200; assay type: binding; details: 3.125 μM to 200 μM, 25 °C, HBS-EP
T1 construct: purchased Sino Biological 50441-M01H
T1 sequence (O08689 268-376): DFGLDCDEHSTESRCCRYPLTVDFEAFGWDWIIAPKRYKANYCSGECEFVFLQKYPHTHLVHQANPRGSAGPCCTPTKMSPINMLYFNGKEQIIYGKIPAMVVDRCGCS
Method: The human recombinant Myostatin-Fc protein (Sino Biological, #50441-M01H) was immobilized on the surface of a CM5 sensor chip at 2210.3 response units (RUs) using an EDC/NHS amine coupling kit, following the manufacturer’s instructions. […] Data analysis was performed using Biacore T200 Evaluation Software version 3.1 (Cytiva).

SAMP8 mice = assay: Immunofluorescence in skeletal muscle tissues; assay type: in vivo, mouse; details: oral gavage 45 weeks, 20 mg in 200 µL PBS
Method: Eight week old male senescence-accelerated mouse-prone 8 (SAMP8)/Ta Slc and senescence-accelerated mouse-resistant 1 (SAMR1)/Ta Slc mice (weighing 30 ± 2 g) were purchased from Central Lab Animal Inc. (Seoul, Korea) and housed at 24 °C in cages under a 12/12 h light/dark cycle with ad libitum access to food and water. […] Mice in all groups were dosed once daily by oral gavage for 45 weeks. […] This study was approved by the Institutional Animal Care and Use Committee (approval number CG-R22-001).
Muscle tissues fixed in formalin were sectioned into 5-μm paraffin section. They were treated with heat-mediated antigen retrieval in TRS buffer TRS buffer (pH 6.2) and peroxide-blocked using reagent (Epredia, TA-125-PBQ). Primary antibodies—anti-myostatin (Abcam, ab124721), anti-atrogin-1/MAFbx (Santa Cruz, sc-166806), and anti-fast MyHC (Abcam, ab91506)—were diluted 1:250 or 1:500 in anti-body diluent (GBI Labs, E09-300) and incubated overnight at 4 °C. […] Nuclei were stained with 4′,6-diamidino-2-phenylindole (DAPI; blue) for 20 min, mounted using Aqua Mounting Media (Biomeda), and imaged at 200× with a confocal fluorescence microscope (LEICA, Wetzlar, Germany). Fluorescence intensities were quantified using ImageJ software, and results were statistically analyzed.

EAEYEHL-OH [Myoki]
MuRF1 expression (C2C12 myotubes): significantly and dose-dependently reduced
atrogin-1/MAFbx expression (C2C12 myotubes): significantly and dose-dependently reduced
expression levels of differentiated muscle fiber structural proteins (C2C12 myotubes): dose-dependently restored toward control levels
phosphorylation levels of muscle growth signaling proteins (Akt, mTOR, p70S6K) (C2C12 myotubes): dose-dependently restored toward control levels
SPR binding to myostatin ([1]; seven concentrations, CM5 chip, 2210.3 RU immobilized, 30 μL/min, steady-state affinity fit, Kd not given): binds to Myostatin
association and dissociation ([1]; SPR): relatively rapid association and dissociation
response units (RUs) ([1]; SPR): increased dose-dependently
fast-MyHC fluorescence intensity (SAMP8 mice; n = 5): restored toward SAMR1 levels
atrogin-1/MAFbx fluorescence intensity, gastrocnemius (SAMP8 mice; n = 5, vs SAMP8 group): significantly decreased
